Our source for the MIC and MBC values is US20260130885A1, “ANTIMICROBIAL COMPOSITIONS, PHARMACEUTICAL COMPOSITIONS AND USE THEREOF” (priority 2022, published 2026).

In general, MIC refers to the smallest concentration in the dilution series that meets the test's criterion for growth inhibition. Broadly, the MBC is the lowest tested concentration that kills the bacteria rather than only halting them.

The test system of one test is MRSA USA300. As to the kind of experiment: Antibacterial activity assay (MIC by broth microdilution, MBC by subculture). The class given is cell-based, Staphylococcus aureus. Conditions: +8 mg/L DHA. The procedure: The antimicrobial activity was based on MIC and MBC; MIC is the minimum inhibitory concentration and MBC is the minimum bactericidal concentration. The MIC of individual test agents against MRSA USA300 strains was determined using the broth microdilution method according to CLSI guidelines. Briefly, overnight bacterial cultures in LB medium were diluted 1:50 in fresh LB medium and incubated at 37° C. until reaching an OD600 of 0.5 to 0.6. Bacterial suspensions were diluted to a final concentration of 5×10^5 cfu/mL in fresh CAMHB and then exposed to each test agent at increasing doses in triplicate in 96-well plates for 24 hours at 37° C. The MIC of each agent was defined as the lowest concentration without visible bacterial growth. […] The lowest broth dilution that had no viable bacteria was considered the MBC.
Then, the combination effect was measured by calculating their corresponding fractional inhibitory concentration index (FICI) with the equation ΣFIC (FICi)=FICA+FICB=(CombA/MICA)+(CombB/MICB), where MICA and MICB are the MICs of drugs A and B alone, respectively, and CombA and CombB are the concentrations of drugs A and B in combination, respectively. […] was defined as an FICI≤0.5, no interaction was defined as an FICI>0.5-4.0, and antagonism was defined as an FICI>4.
For orientation: In broth dilution the organism is exposed to a series of concentrations in liquid medium.
`O=C(Nc1ccc2c(c1)OCO2)Nc1ccc(Cl)c(C(F)(F)F)c1` [1-159, reference compound]: the MIC came out at 0.125 µg/mL.

`O=C(Nc1ccc(Cl)c(C(F)(F)F)c1)Nc1cccc(OF)c1OF` [1-164, reference compound]: the MIC amounted to 0.03125 µg/mL.

For `O=C(Nc1ccc(Oc2ccccc2)cc1)Nc1ccc(Cl)c(C(F)(F)F)c1` [3-006, reference compound], the MIC was determined as 0.0078 µg/mL.

For the molecule `FC(F)(F)c1cc(Nc2cncc(Nc3ccc(Cl)c(C(F)(F)F)c3)n2)ccc1Cl` [SC5010], the MBC is >64 µg/mL and the MIC is >64 µg/mL.

As for `C#Cc1cccc(Nc2cncc(Nc3cccc(C#C)c3)n2)c1` [SC5015], the MBC is >64 µg/mL and the MIC is >64 µg/mL.

Turning to `O=C(Nc1ccc(Cl)c(C(F)(F)F)c1)C1(C(=O)Nc2ccc(Cl)c(C(F)(F)F)c2)CC1` [SC5020], the MBC was 0.125 µg/mL and the MIC is 0.125 µg/mL.

For the molecule `C#Cc1cccc(NC(=O)C2(C(=O)Nc3cccc(C#C)c3)CC2)c1` [SC5021], the MBC is 64 µg/mL and the MIC was determined as 64 µg/mL.

With `O=C(Nc1ccccc1)C(CCCl)C(=O)Nc1ccccc1` [SC5022], the MBC is >64 µg/mL and the MIC was >64 µg/mL.

As for `O=C(Nc1cccc(C(F)(F)F)c1)C(CCCl)C(=O)Nc1cccc(C(F)(F)F)c1` [SC5023], the MBC came to 16 µg/mL and the MIC amounted to 16 µg/mL.

As to `O=C(Nc1ccc(OC(F)(F)F)cc1)C(CCCl)C(=O)Nc1ccc(OC(F)(F)F)cc1` [SC5024], the MBC turned out to be 8 µg/mL and the MIC is 8 µg/mL.

Consider `O=C(Nc1cc(Cl)cc(Cl)c1)C(CCCl)C(=O)Nc1cc(Cl)cc(Cl)c1` [SC5025], for which the MBC worked out at 2 µg/mL and the MIC is 2 µg/mL.

Turning to `C#Cc1cccc(NC(=O)C(CCCl)C(=O)Nc2cccc(C#C)c2)c1` [SC5026], the MBC is >64 µg/mL and the MIC was >64 µg/mL.

For the molecule `O=C(Nc1cccc(Cl)c1)C(CCCl)C(=O)Nc1cccc(Cl)c1` [SC5027], the MBC is >64 µg/mL and the MIC was 64 µg/mL.

Regarding `O=C(Nc1ccc([N+](=O)[O-])c(C(F)(F)F)c1)C(CCCl)C(=O)Nc1ccc([N+](=O)[O-])c(C(F)(F)F)c1` [SC5034], the MBC is 1 µg/mL and the MIC came to 1 µg/mL.

`O=C(Nc1cc(Cl)cc(Cl)c1)C(CCCl)C(=O)Nc1ccc(Cl)c(C(F)(F)F)c1` (centres unmarked) [SC5035]: the MBC is 2 µg/mL and the MIC worked out at 1 µg/mL.

The test is the same for the next values; noted with them: Staphylococcus aureus; amide compound alone; read-out: MBC.
For `O=C(Nc1ccc2c(c1)OCO2)Nc1ccc(Cl)c(C(F)(F)F)c1` [1-159, reference compound], the MBC amounted to 64 µg/mL.

On to `O=C(Nc1ccc(Cl)c(C(F)(F)F)c1)Nc1cccc(OF)c1OF` [1-164, reference compound], for which the MBC was found to be 4 µg/mL.

With `O=C(Nc1ccc(Oc2ccccc2)cc1)Nc1ccc(Cl)c(C(F)(F)F)c1` [3-006, reference compound], the MBC came out at 1 µg/mL.

For `FC(F)(F)c1cc(Nc2cncc(Nc3ccc(Cl)c(C(F)(F)F)c3)n2)ccc1Cl` [SC5010], the MBC was > 64 µg/mL.

`C#Cc1cccc(Nc2cncc(Nc3cccc(C#C)c3)n2)c1` [SC5015]: the MBC was > 64 µg/mL.

For `O=C(Nc1ccc(Cl)c(C(F)(F)F)c1)C1(C(=O)Nc2ccc(Cl)c(C(F)(F)F)c2)CC1` [SC5020], the MBC is > 64 µg/mL.

As to `C#Cc1cccc(NC(=O)C2(C(=O)Nc3cccc(C#C)c3)CC2)c1` [SC5021], the MBC was > 64 µg/mL.

Consider `O=C(Nc1ccccc1)C(CCCl)C(=O)Nc1ccccc1` [SC5022], for which the MBC is > 64 µg/mL.

On to `O=C(Nc1cccc(C(F)(F)F)c1)C(CCCl)C(=O)Nc1cccc(C(F)(F)F)c1` [SC5023], for which the MBC is > 64 µg/mL.

As for `O=C(Nc1ccc(OC(F)(F)F)cc1)C(CCCl)C(=O)Nc1ccc(OC(F)(F)F)cc1` [SC5024], the MBC was > 64 µg/mL.

As for `O=C(Nc1cc(Cl)cc(Cl)c1)C(CCCl)C(=O)Nc1cc(Cl)cc(Cl)c1` [SC5025], the MBC was found to be 32 µg/mL.

Consider `C#Cc1cccc(NC(=O)C(CCCl)C(=O)Nc2cccc(C#C)c2)c1` [SC5026], for which the MBC was > 64 µg/mL.

On to `O=C(Nc1cccc(Cl)c1)C(CCCl)C(=O)Nc1cccc(Cl)c1` [SC5027], for which the MBC is > 64 µg/mL.

For the molecule `O=C(Nc1ccc([N+](=O)[O-])c(C(F)(F)F)c1)C(CCCl)C(=O)Nc1ccc([N+](=O)[O-])c(C(F)(F)F)c1` [SC5034], the MBC came to 32 µg/mL.

For `O=C(Nc1cc(Cl)cc(Cl)c1)C(CCCl)C(=O)Nc1ccc(Cl)c(C(F)(F)F)c1` (centres unmarked) [SC5035], the MBC turned out to be 32 µg/mL.

The same test, now with this note: Staphylococcus aureus; amide compound alone; read-out: MIC.
Turning to `O=C(Nc1ccc2c(c1)OCO2)Nc1ccc(Cl)c(C(F)(F)F)c1` [1-159, reference compound], the MIC came out at 32 µg/mL.

As for `O=C(Nc1ccc(Cl)c(C(F)(F)F)c1)Nc1cccc(OF)c1OF` [1-164, reference compound], the MIC came out at 0.25 µg/mL.

On to `O=C(Nc1ccc(Oc2ccccc2)cc1)Nc1ccc(Cl)c(C(F)(F)F)c1` [3-006, reference compound], for which the MIC is 0.125 µg/mL.

Take `FC(F)(F)c1cc(Nc2cncc(Nc3ccc(Cl)c(C(F)(F)F)c3)n2)ccc1Cl` [SC5010]: the MIC was > 64 µg/mL.

For the molecule `C#Cc1cccc(Nc2cncc(Nc3cccc(C#C)c3)n2)c1` [SC5015], the MIC is > 64 µg/mL.

For `O=C(Nc1ccc(Cl)c(C(F)(F)F)c1)C1(C(=O)Nc2ccc(Cl)c(C(F)(F)F)c2)CC1` [SC5020], the MIC was > 64 µg/mL.

Take `C#Cc1cccc(NC(=O)C2(C(=O)Nc3cccc(C#C)c3)CC2)c1` [SC5021]: the MIC is > 64 µg/mL.

Take `O=C(Nc1ccccc1)C(CCCl)C(=O)Nc1ccccc1` [SC5022]: the MIC is > 64 µg/mL.

Consider `O=C(Nc1cccc(C(F)(F)F)c1)C(CCCl)C(=O)Nc1cccc(C(F)(F)F)c1` [SC5023], for which the minimal inhibitory concentration (MIC) is > 64 µg/mL.

Turning to `O=C(Nc1ccc(OC(F)(F)F)cc1)C(CCCl)C(=O)Nc1ccc(OC(F)(F)F)cc1` [SC5024], the MIC is > 64 µg/mL.

Take `O=C(Nc1cc(Cl)cc(Cl)c1)C(CCCl)C(=O)Nc1cc(Cl)cc(Cl)c1` [SC5025]: the MIC amounted to 16 µg/mL.

Regarding `C#Cc1cccc(NC(=O)C(CCCl)C(=O)Nc2cccc(C#C)c2)c1` [SC5026], the MIC is > 64 µg/mL.

On to `O=C(Nc1cccc(Cl)c1)C(CCCl)C(=O)Nc1cccc(Cl)c1` [SC5027], for which the MIC was > 64 µg/mL.

In the case of `O=C(Nc1ccc([N+](=O)[O-])c(C(F)(F)F)c1)C(CCCl)C(=O)Nc1ccc([N+](=O)[O-])c(C(F)(F)F)c1` [SC5034], the MIC came out at 16 µg/mL.

Turning to `O=C(Nc1cc(Cl)cc(Cl)c1)C(CCCl)C(=O)Nc1ccc(Cl)c(C(F)(F)F)c1` (centres unmarked) [SC5035], the MIC was 16 µg/mL.

Staying with this test, now noted: Staphylococcus aureus; fatty acid alone; read-out: MBC fatty acid.
As to `CC/C=C\C/C=C\C/C=C\C/C=C\C/C=C\CCCC(=O)O` [Eicosapentaenoic acid, eicosapentaenoic acid], the MBC amounted to 1020 µg/mL.

Still in this test, the particulars now being: Staphylococcus aureus; fatty acid alone; read-out: MIC fatty acid.
Take `CC/C=C\C/C=C\C/C=C\C/C=C\C/C=C\CCCC(=O)O` [Eicosapentaenoic acid, eicosapentaenoic acid]: the MIC came out at 64 µg/mL.
